pIC50: −log10 of the molar value. ≈ marks a conversion by molar mass, not a printed value.
Assays:
MCF7 cells = test: Immunofluorescence of cellular microtubules (confocal microscopy); type: cell-based, human; conditions: MCF7, 24 h; 8 and 14 100 nM, 9 500 nM
Procedure: (§1) The 8 × 10^4 HeLa, MCF7, and U87 MG cells were seeded on 0.01% poly-L-lysine pre-coated square glass coverslips ([…]) deposited on 6-well plates (1 coverslip/well) and incubated in complete DMEM medium (see above) at 37 °C and 5% CO2 atmosphere for 24 h. Then, the culture medium was replaced by fresh complete DMEM, and cells were incubated in the presence or absence of selected compounds for 24 h. Untreated cells were used as negative controls. […] In that way, compounds with similar antiproliferative potencies were tested at the same concentrations. HeLa cells were treated with 200 nM of compounds 8 and 14 and 500 nM of compound 9; MCF7 cells were treated with 100 nM of compounds 8 and 14 and 500 nM of compound 9; and U87 MG cells were treated with 50 nM of compound 8 and 100 nM of compounds 9 and 14. After incubation, medium was removed and coverslips were washed three times with PBS, fixed in 4% formaldehyde in PBS for 10 min, permeabilized with 0.5% Triton X-100 (Sigma-Aldrich, St. Louis, MO, USA) in PBS for 90 s at 4 °C, and blocked with 10% BSA in PBS for 30 min. After four washes with PBS, the coverslips were incubated for 1 h with anti-α-tubulin mouse monoclonal antibody (Sigma-Aldrich, St. Louis, MO, USA), and diluted 1:200 in PBS containing 3% BSA. After four washes wish PBS, coverslips were incubated, in darkness, with fluorescent secondary antibody Alexa Fluor 488 goat anti-mouse IgG (Molecular Probes, Invitrogen, Eugenen, OR, USA), and diluted 1:400 in PBS containing 1% BSA for 1.5 h. After four washes with PBS, a drop of ProLong™ Gold Antifade Mountant containing DAPI (ThermoFisher, Waltham, MA, USA) was added for cell nuclei staining. Samples were analyzed via confocal microscopy using a LEICA SP5 microscope DMI-6000V model coupled to a LEICA LAS AF software computer.

U87MG cells = test: as above; type: cell-based, human; conditions: 24 h, 8 50 nM, 9 and 14 100 nM
Procedure: as §1

HeLa cells = test: as above; type: cell-based, human; conditions: 24 h, 8 and 14 200 nM, 9 500 nM
Procedure: as §1

HEK-293 cells = test: Lactate dehydrogenase (LDH) release assay; type: cell-based, human; conditions: HEK-293, 72 h; for LDH release: 100 µM
Procedure: CytoTox96® Non-Radioactive Cytotoxicity Assay kit (Promega, Madison, WI, USA) was used to measure the release of lactate dehydrogenase (LDH) by following the previously described method in [46]. […] After treatment, the supernatants were collected, and the intact attached cells were lysed using 0.1% (w/v) Triton X-100 in (0.9%) NaCl solution. Both the LDH released to culture media, as well as the LDH content within the cells, were determined spectrophotometrically at 490 nm on a 96-well plate reader (Infinite 200, Tecan, Salzburg, Austria) by following the manufacturer’s instructions. LDH release was defined by the ratio of LDH released/total LDH present in the cells, with the total LDH being 100%. All the samples were run in quadruplicate.

tumor cell lines = test: Cell growth inhibition assay (MTT), summary statements over several cell lines; type: cell-based; conditions: glioblastoma cell lines; read-out: antiproliferative IC50
Procedure: Cells were plated in 96-well plates (100 µL/well) at the following concentrations: 30,000 cells/mL (HepG2, U87 MG, T98G, C6, LNCaP, PC3, and HT-29 cells) or 15,000 cells/mL (HeLa and MCF-7 cells). Previous experiments were performed to choose the optimal cell concentration (70–80% confluence) and avoid the formation of cell aggregates. Cells were incubated in complete DMEM or RPMI 1640 medium (see above) at 37 °C and 5% CO2 atmosphere for 24 h to allow for cell attachment to the plate. Then, every compound was added (10 µL/well) to a final concentration of 10 µM. Non-treated cells were used as negative controls. The antiproliferative activity of compounds was measured 72 h after the treatments using the MTT reagent (3-[4,5-dimethylthiazol-2-yl]-2,5-diphenyltetrazolium bromide), (MTT Thiazolyl Blue Tetrazolium Bromide, Sigma-Aldrich, St. Louis, MO, USA) dissolved in PBS at 5 mg/mL. Compounds showing antiproliferative effects at 10 µM were selected to determine their IC50 value. For that purpose, compounds were used at different concentrations ranging from 10^−10 to 10^−2 M. Measurements were performed in triplicate, and each experiment was repeated three times. The IC50 value was determined for every compound using Origin software (OriginLab, Washington, USA). To study the sensitivity to MDR efflux pumps of compounds, the IC50 values were determined by following the same procedure but in the presence of verapamil (final concentration of 10 µM).

[1] = Aqueous solubility, shake-flask method; type: physicochemical; conditions: shaking flask, buffered media at pH 7.0, mean of three
In short: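 Concentration read by UV at maximum absorbance wavelength, interpolated on each compound's own calibration line, mean of three independent runs. Samples were suspensions of 5 mg in 500 µL pH 7.0 buffer, stirred at room temperature for 72 h and filtered before reading.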

LDH release (HEK-293 cells) | pIC50 (tumor cell lines) | solubility at 72 h ([1]; pH 7.0 buffer, pH 7, aqueous buffer, thermodynamic from solid) | Solubility [1] | SMILES | effect on the microtubule network (MCF7 cells) | effect on the microtubule network (U87MG cells) | effect on the microtubule network (HeLa cells) | cytotoxic effect by LDH release (in words) (HEK-293 cells; between 0.1 and 1 µM)
~30% | 7.12 to 7.43 | 95 µg/mL (≈ 317 µM) |  | COc1ccc2nc(N(C=O)Cc3cccnc3)sc2c1 [Compound 14, N-(6-methoxybenzo[d]thiazol-2-yl)-N-(pyridin-3-ylmethyl)formamide] | disruption of the microtubule network | disruption of the microtubule network | disruption of the microtubule network | No significant cytotoxic effects
~30% |  |  | 102 µg/mL (≈ 298 µM) | CCNC(=O)N(Cc1cccnc1)c1nc2ccc(OC)cc2s1 [Compound 8] | disruption of the microtubule network | disruption of the microtubule network | disruption of the microtubule network | 

— publication PMC10301603, “Potent and Selective Benzothiazole-Based Antimitotics with Improved Water Solubility: Design, Synthesis, and Evaluation as Novel Anticancer Agents” (Pharmaceutics, 2023)
